Test results published in US6818656B2, “Method and composition for treatment of irritable bowel disease” (University of Florida, priority 2001, dated 2004).

Legend:
[1] = tested on: stress-induced fecal output; assay: Psychological stress-induced (water avoidance) IBS model, SC administration; assay type: in vivo; settings: for Stool Output: 6-h collection
Source text: (§1) For drug preparation and administration, the compounds were put into solution with sterile normal saline and sonicated briefly, if necessary. The drugs were made up at concentrations such that the rats received the drugs PO or SC at the rate of 1 cc per kilogram. Mice received the CHX(3,4,3)-trans IP at 1 cc per 100 grams. The solutions were made fresh the day of the study. Control animals received an equivalent amount of saline PO or SC.
Animal care and experimental procedures were approved by the Institutional Animal Care and Use Committee. Male Sprague-Dawley rats (250-350 g, Harlan Sprague-Dawley, Indianapolis, Ind.) were housed in polycarbonate cages in a temperature- and humidity-controlled room with a 12-hour light/dark cycle. The experiments were performed at the same time of the day to decrease diurnal variability. A typical experiment involved 20 rats: 5 saline-treated controls and 5 pretreated with polyamine analogues at each of three doses as either a SC injection or a PO gavage. The rats in the SC studies and in one set of experiments involving PO administration were allowed ad libitum access to a standard rodent diet and tap water until the morning of the experiment. Stress was initiated 30 minutes post drug as described below. In another set of experiments involving PO administration, the animals were fasted overnight but were allowed free access to water. […] In a final experiment, non-stressed control rats were injected with saline SC and housed in individual polycarbonate cages. The fecal output (number of pellets) of the stressed and unstressed animals was recorded at 30-min intervals for a 6-h period, during which they received no food or water.
(§2) To initiate the stress, water was added to each cage to a depth of at least 4.5 cm, i.e., within 0.5 cm of the top of the Pyrex dish. To avoid contact with water, the rats stand on the glass dish for the 6 h of the study. Stool output was expressed as the total number of fecal pellets excreted over the 6-h collection period. Percent reduction was calculated by dividing the mean value from the treated animals (T) by the mean value from the control animals (C), subtracting the resulting quotient from 1.0, and multiplying by 100 [i.e., (1.0−T/C)×100].
(§3) A one-tailed t-test assuming unequal variance was performed on the stool output data of the treated vs control (0 mg/kg) animals for each compound. A value of P<0.05 was considered significant.
The psychological stress-induced IBS model involves subjecting the rats to an aversive stimulus (water) and observing the increase in fecal output over a period of time. […] Control rats received an equivalent amount of saline SC.

[2] = tested on: stress-induced fecal output; assay: Psychological stress-induced (water avoidance) IBS model, PO administration by gavage; assay type: in vivo, rat; settings: for oral activity against stress-induced fecal output (in words): PO gavage, non-fasted rats, 11.6-115.6 μmol/kg; for Stool Output: 6-hr collection; for % Reduction: vs stressed controls, 6 hr
Source text: as §1
Animal care and experimental procedures were approved by the Institutional Animal Care and Use Committee. Male Sprague-Dawley rats (250-350 g, Harlan Sprague-Dawley, Indianapolis, Ind.) were housed in polycarbonate cages in a temperature- and humidity-controlled room with a 12-hour light/dark cycle. The experiments were performed at the same time of the day to decrease diurnal variability. A typical experiment involved 20 rats: 5 saline-treated controls and 5 pretreated with polyamine analogues at each of three doses as either a SC injection or a PO gavage. The rats in the SC studies and in one set of experiments involving PO administration were allowed ad libitum access to a standard rodent diet and tap water until the morning of the experiment. Stress was initiated 30 minutes post drug as described below. In another set of experiments involving PO administration, the animals were fasted overnight but were allowed free access to water. The animals were then stressed from ½ h to 2 h post-drug (data not shown). In a final experiment, non-stressed control rats were injected with saline SC and housed in individual polycarbonate cages. The fecal output (number of pellets) of the stressed and unstressed animals was recorded at 30-min intervals for a 6-h period, during which they received no food or water.
as §2, with “Once the drug had been administered, the animals were housed individually in polycarbonate cages containing a clear 70×50 mm Pyrex crystallization dish (Fisher, Pittsburgh, Pa.) inverted in the center and held in place with vacuum grease. To initiate” for “To initiate”
as §3
Because an orally active compound would be desirable for the treatment of IBS, selected analogues utilizing oral administration in the same model were assessed. In the initial studies animals were utilized that had been fasted overnight. Rodents were then given the drug of interest PO by gavage and stressed ½ h, 1 h, or 2 h post-drug. Unfortunately, because of the low baseline stool output in fasted control rats, the reductions in fecal output observed upon drug administration cannot be reported with any confidence (data not shown). Thereafter, only non-fasted animals were employed and were given the agents by gavage at doses of 11.6, 23.2, 57.8, or 115.6:mol/kg 30 minutes before initiating the stress. […] At doses of 11.6 and 23.2:mol/kg, CHX(3,4,3)-trans reduced stooling by about 80% (P=0.001 and <0.001, respectively). DEHSPM was effective at a dose of […]:mol/kg (40% diminution of fecal output; P<0.01), and DE(5,4,5) was active at doses of 23.2 and 57.8:mol/kg (55 and 73% reductions in fecal output, respectively; P<0.001 for both doses).

[3] = tested on: castor oil-induced diarrhea; settings: doses equivalent to a 5 mg/kg dose of DEHSPM; cited from earlier work
[4] = 2.3 μmol/kg SC, stress 30 min post drug
[5] = Rattus norvegicus, 2.3 μmol/kg SC, vs stressed controls, 6 h, read-out: % Reduction
[6] = Rattus norvegicus, 11.6 μmol/kg SC, vs stressed controls, 6 h, read-out: % Reduction
[7] = Rattus norvegicus, 23.2 μmol/kg SC, vs stressed controls, 6 h, read-out: % Reduction
[8] = Rattus norvegicus, 57.8 μmol/kg SC, vs stressed controls, 6 h, read-out: % Reduction

| Compound | Stool Output [1, 4] | Stool Output ([1]; 11.6 μmol/kg SC) | Stool Output ([1]; 57.8 μmol/kg SC) | Stool Output ([1]; 23.2 μmol/kg SC) | inhibition in vivo at 11.6 µmol/kg [1, 6] [%] | inhibition in vivo at 57.8 µmol/kg [1, 8] [%] | further results |
| --- | --- | --- | --- | --- | --- | --- | --- |
| CC(C)NCCCNCCCNCCCNC(C)C [Compound 2] | 17.6 ± 5.5 number of fecal pellets | 13.6 ± 3.2 number of fecal pellets | 7.4 ± 3.6 number of fecal pellets |  |  |  | activity at diminishing stress-induced fecal output (in words) ([1]; SC administration to stressed rats): ineffective |
| CCCNCCCNCCCCNCCCNCCC [Compound 4] | 11.4 ± 7.2 number of fecal pellets | 11.5 ± 8.7 number of fecal pellets | 0.2 ± 0.4 number of fecal pellets | 5.7 ± 4.1 number of fecal pellets | 48 | 99 | inhibition in vivo at 2.3 µmol/kg [1, 5]: 49%; inhibition in vivo at 23.2 µmol/kg [1, 7]: 74% |
| CC(C)NCCCNCCCCNCCCNC(C)C [Compound 6, N^1,N^12 diisopropylspermine] |  | 1.6 ± 1.8 number of fecal pellets |  |  | 90 |  | oral activity against stress-induced fecal output (in words) [2]: only CHX(3,4,3)-trans, DEHSPM, and DE(5,4,5) showed any activity at all; Stool Output ([1]; 5.8 μmol/kg SC): 4.6 ± 2.3 number of fecal pellets; inhibition in vivo at 5.8 µmol/kg ([1]; Rattus norvegicus, 5.8 μmol/kg SC, vs stressed controls, 6 h, read-out: % Reduction): 70% |
| CC(C)CNCCCNCCCCNCCCNCC(C)C [Compound 7] | 15.9 ± 5.7 number of fecal pellets | 12.2 ± 2.7 number of fecal pellets |  | 6.6 ± 3.1 number of fecal pellets | 34 |  | neurotoxicity in rats at subtherapeutic doses [3]: Signs of neurotoxicity; toxic effects observed in stressed rats ([1]; 23.2 μmol/kg SC): ^gToxic effects were evident, including huddling in the corner of the cage.; inhibition in vivo at 23.2 µmol/kg [1, 7]: 64% |
| CC(C)CNCCCNCCCCNCCCN [Compound 8] | 14.8 ± 3.8 number of fecal pellets | 11.2 ± 2.2 number of fecal pellets |  | 10.6 ± 2.9 number of fecal pellets | 47 |  | toxic effects observed in stressed rats ([1]; 23.2 μmol/kg SC): ^gToxic effects were evident, including huddling in the corner of the cage.; inhibition in vivo at 2.3 µmol/kg [1, 5]: 30%; inhibition in vivo at 23.2 µmol/kg [1, 7]: 50% |
| CC(C)CCNCCCNCCCCNCCCNCCC(C)C [Compound 9] | 18.2 ± 2.8 number of fecal pellets | 14.6 ± 4.5 number of fecal pellets | 0 ± 0 number of fecal pellets |  |  | 100 | neurotoxicity in rats at subtherapeutic doses [3]: Signs of neurotoxicity; toxic effects observed in stressed rats ([1]; 57.8 μmol/kg SC): ^hDue to severe CNS toxicity, 3 of the 5 rats were removed after 4-4.5 h; neither of the remaining 2 rats had any stool output for the remainder of the study.; toxic effects observed in stressed rats ([1]; 57.8 μmol/kg SC, listed as DIPESPM): severe neurotoxicity |
| c1ccc(CNCCCNCCCCNCCCNCc2ccccc2)cc1 [Compound 10] | 12.6 ± 4.8 number of fecal pellets | 11.6 ± 2.9 number of fecal pellets | 8.4 ± 1.5 number of fecal pellets |  |  | 55 |  |
| FC(F)(F)c1ccccc1CCNCCCNCCCCNCCCNCCc1ccccc1C(F)(F)F [Compound 11] | 12.4 ± 2.1 number of fecal pellets | 13.6 ± 5.1 number of fecal pellets |  | 11.4 ± 2.1 number of fecal pellets |  |  |  |
| CCNCCCCCNCCCCNCCCCCNCC [Compound 14, N,N′-bis[5-(ethylamino)pentyl]-1,4-butanediamine] | 13.2 ± 6.3 number of fecal pellets | 2.2 ± 3.3 number of fecal pellets | 0 ± 0 number of fecal pellets |  | 88 | 100 | Stool Output ([2]; 11.6 μmol/kg PO): 15.2 ± 8.5 number of fecal pellets; Stool Output ([2]; 23.2 μmol/kg PO): 8.6 ± 4.9 number of fecal pellets; % Reduction ([2]; 23.2 μmol/kg PO): 55%; Stool Output ([2]; 57.8 μmol/kg PO): 5.1 ± 3.1 number of fecal pellets; % Reduction ([2]; 57.8 μmol/kg PO): 73% |
| C(CCNCCC1CCNCC1)CNCCC1CCNCC1 [Compound 15, N,N′-bis[2-(4-piperidinyl)ethyl]-1,4-diaminobutane] |  |  | 2.0 ± 2.0 number of fecal pellets |  |  | 82 | oral activity against stress-induced fecal output (in words) [2]: only CHX(3,4,3)-trans, DEHSPM, and DE(5,4,5) showed any activity at all; Stool Output ([1]; 2.32 μmol/kg SC): 8.8 ± 1.6 number of fecal pellets; Stool Output ([1]; 11.57 μmol/kg SC): 8.2 ± 3.1 number of fecal pellets |
| CCNCCCCCCNCCCNCCCNCC [Compound 16] |  |  | 0.4 ± 0.9 number of fecal pellets |  |  | 97 | Stool Output ([1]; 2.31 μmol/kg SC): 10.4 ± 5.2 number of fecal pellets; Stool Output ([1]; 11.56 μmol/kg SC): 9.4 ± 4.1 number of fecal pellets; toxic effects observed in stressed rats ([1]; 57.8 μmol/kg SC): ^iThe rats were quite lethargic, as though sedated, after drug administration. |
| CC(C)NCCCCCCNCCCNCCCNC(C)C [Compound 17] |  |  | 0 ± 0 number of fecal pellets |  |  | 100 | toxic effects observed in stressed rats ([1]; 2.32 μmol/kg SC): ^iThe rats were quite lethargic, as though sedated, after drug administration.; Stool Output ([1]; 2.32 μmol/kg SC): 1.4 ± 1.9 number of fecal pellets; toxic effects observed in stressed rats ([1]; 11.56 μmol/kg SC): ^iThe rats were quite lethargic, as though sedated, after drug administration.; Stool Output ([1]; 11.56 μmol/kg SC): 0 ± 0 number of fecal pellets; toxic effects observed in stressed rats ([1]; 57.8 μmol/kg SC): ^iThe rats were quite lethargic, as though sedated, after drug administration.; inhibition in vivo at 2.32 µmol/kg ([1]; Rattus norvegicus, 2.32 μmol/kg SC, vs stressed controls, 6 h, read-out: % Reduction): 84%; inhibition in vivo at 11.56 µmol/kg ([1]; Rattus norvegicus, 11.56 μmol/kg SC, vs stressed controls, 6 h, read-out: % Reduction): 100% |
